Measurements from article PMC6136660 (Steroids, 2018).

Assays:
[1] = tested on: adrenal axis (first-in-morning serum cortisol); assay: First-in-morning serum cortisol (adrenal suppression biomarker), MAD; format: in vivo
Description: (§1) All biomarkers were analyzed using standard immunoassays by PRA.
Adrenal suppression is the consequence of a negative feedback loop between high circulating cortisol and pharmacological glucocorticoids and adrenal function, leading to loss of responsiveness of the adrenal cortex to ACTH. Adrenal suppression can be seen both acutely (hours after a single dose of pharmacological glucocorticoids), and chronically. Chronic treatment with glucocorticoids leads to chronic deficiencies in multiple steroidal hormones, including cortisol, testosterone, 17-hydroxyprogesterone, corticosterone, and 11-deoxycortisol. The resulting hormonal imbalance puts patients at increased risk for a series of safety concerns. One is adrenal crisis (inability to mount a cortisol stress response after trauma, severe illness, or surgery, with ensuring risk for shock and death). Other safety concerns in children include delay of puberty and growth stunting. Adrenal suppression can be measured with first-in-morning serum cortisol, reflective of the endogenous diurnal cortisol peak pre-awakening. Measurement of first-in-morning cortisol 24 h after the last drug dose indicates whether the drug has suppressed the normal diurnal cortisol response.
First in morning serum cortisol levels were measured in all Phase 1 MAD subjects, at baseline prior to first administration of vamorolone or placebo, 24 h after the first dose (acute suppression), and 24 h after 14 days of daily dosing (chronic suppression) (Fig. 4). The two placebo subjects from each dose group were combined into the same panel. […] At 9.0 mg/kg/day, there was a decline in morning cortisol in all subjects, with 1 subject below the 3.6 µg/dL after first dose, and 3 of 6 subjects after two weeks of daily dosing. […] One subject stopped dosing due to mild elevation of liver enzymes, and their morning cortisol returned to normal levels within a few days of cessation of dosing (Fig. 4). Direct head-to-head comparisons to prednisone-treated subjects were not done in this Phase 1 trial, but approximate comparisons can be done to published literature. Both Fleishaker et al. and we tested serum cortisol 24 h after the first dose of drug. Fleishaker et al. studied doses of 2.5, 5, 10, 20 mg, 40 mg, and 60 mg, with an average weight of subjects of 80 kg. […] For vamorolone, the dose groups showing decreases in morning cortisol 24 h after the initial dose were 3 mg/kg (9 µg/dL cortisol), 9 mg/kg (6 µg/dL cortisol), and 20 mg/kg (4 µg/dL cortisol). […] Two week prednisone treatment data for morning cortisol was not published.

[2] = tested on: blood glucose (insulin resistance biomarker); assay: Blood glucose, SAD; format: in vivo, human; conditions: mean±SEM
Description: as §1
Glucocorticoids were originally named as such due to their potent and acute effects on glucose metabolism, where liver and muscle pathways for insulin signaling are rapidly and profoundly affected, creating a state of insulin resistance. […] Fasting insulin and glucose levels were assessed in all dose groups in the vamorolone Phase 1 SAD and MAD.

[3] = tested on: osteocalcin; assay: Serum osteocalcin (bone formation biomarker), MAD; format: in vivo, human; conditions: for Osteocalcin: mean±SEM
Description: as §1
(§2) Pharmacological glucocorticoids cause bone side effects including osteopenia and bone fragility. Bone turnover markers bridged to later bone morbidities include osteocalcin for bone formation, and CTX1 (C-terminal telopeptide of collagen 1) for bone absorption. These biomarkers predict phenotypes of osteopenia and used in clinical trials to monitor bone side effects of treatments. […] (Supplemental Fig. 2). In the vamorolone Phase 1 trial, serum osteocalcin levels were assayed prior to dosing (Day 1 predose), 8 h after initial dose (Day 1), pre-dose on day 14 of daily dosing, 8 h after the day 14 (last) dose, and during recovery days 15 and 17.

[4] = tested on: CTX1 (C-terminal telopeptide of collagen 1); assay: Serum CTX1 (bone resorption biomarker), MAD; format: in vivo, human; conditions: mean±SEM
Description: as §1, §2

[5] = MAD 1.0 mg/kg, Day 1 (8 h after initial dose)
[6] = MAD 1.0 mg/kg, Day 1 (predose), baseline
[7] = MAD 1.0 mg/kg, Day 14 (8 h after last dose)
[8] = MAD 1.0 mg/kg, Day 14 (predose)
[9] = MAD 3.0 mg/kg, Day 1 (8 h after initial dose)
[10] = MAD 3.0 mg/kg, Day 1 (predose), baseline
[11] = MAD 3.0 mg/kg, Day 14 (8 h after last dose)
[12] = MAD 3.0 mg/kg, Day 14 (predose)
[13] = MAD 9.0 mg/kg, Day 1 (8 h after initial dose)
[14] = MAD 9.0 mg/kg, Day 1 (predose), baseline
[15] = MAD 9.0 mg/kg, Day 14 (8 h after last dose)
[16] = MAD 9.0 mg/kg, Day 14 (predose)
[17] = MAD 20.0 mg/kg, Day 1 (8 h after initial dose)
[18] = MAD 20.0 mg/kg, Day 1 (predose), baseline
[19] = MAD 20.0 mg/kg, Day 14 (8 h after last dose)
[20] = MAD 20.0 mg/kg, Day 14 (predose)
[21] = MAD 20.0 mg/kg, Day 15 recovery
[22] = MAD 20.0 mg/kg, Day 17 recovery

## C[C@@H]1C[C@H]2[C@@H]3CCC4=CC(=O)C=C[C@]4(C)C3=CC[C@]2(C)[C@@]1(O)C(=O)CO [vamorolone]
[1]; 9.0 mg/kg/day, after first dose, n = 6
  subjects with morning cortisol below 3.6 µg/dL (adrenal suppression): 1 subjects
[1]; 9.0 mg/kg/day, after two weeks of daily dosing
  subjects with morning cortisol below 3.6 µg/dL (adrenal suppression): 3 of 6
[1]; 20.0 mg/kg/day, after a single dose
  subjects with morning cortisol below 3.6 µg/dL (adrenal suppression): 4 of 6
[1]; 20.0 mg/kg/day, after two weeks of dosing
  subjects with morning cortisol below 3.6 µg/dL (adrenal suppression): 5/5
[1]; 1.0 or 3.0 mg/kg/day dose groups, acute and 14 days
  adrenal suppression: No evidence of adrenal suppression
[1]; 24 h after the first dose, vamorolone data vs published prednisone data (ref 6)
  difference in potency for acute adrenal suppression (prednisone > vamorolone): 10 fold
[1]; seen at 9.0 and 20.0 mg/kg/day
  adrenal suppression potency relative to traditional glucocorticoids: ~ 1%
[2]; SAD 0.1 mg/kg, 24 Hours Post Dose
  Blood glucose: 95 ± 4 mg/dL
[2]; SAD 0.1 mg/kg, 48 Hours Post Dose
  Blood glucose: 95 ± 3 mg/dL
[2]; SAD 0.1 mg/kg, 72 Hours Post Dose
  Blood glucose: 94 ± 4 mg/dL
[2]; SAD 0.1 mg/kg, <2 hours predose, baseline
  Blood glucose: 95 ± 3 mg/dL
[2]; SAD 0.1 mg/kg, Day -1, baseline
  Blood glucose: 99 ± 3 mg/dL
[2]; SAD 0.1 mg/kg, Follow-up Visit
  Blood glucose: 98 ± 4 mg/dL
[2]; SAD 0.1 mg/kg, Screening, baseline
  Blood glucose: 94 ± 4 mg/dL
[2]; SAD 0.3 mg/kg, 24 Hours Post Dose
  Blood glucose: 91 ± 2 mg/dL
[2]; SAD 0.3 mg/kg, 48 Hours Post Dose
  Blood glucose: 90 ± 2 mg/dL
[2]; SAD 0.3 mg/kg, 72 Hours Post Dose
  Blood glucose: 91 ± 1 mg/dL
[2]; SAD 0.3 mg/kg, <2 hours predose, baseline
  Blood glucose: 93 ± 2 mg/dL
[2]; SAD 0.3 mg/kg, Day -1, baseline
  Blood glucose: 91 ± 2 mg/dL
[2]; SAD 0.3 mg/kg, Follow-up Visit
  Blood glucose: 88 ± 4 mg/dL
[2]; SAD 0.3 mg/kg, Screening, baseline
  Blood glucose: 93 ± 2 mg/dL
[2]; SAD 1.0 mg/kg, 24 Hours Post Dose
  Blood glucose: 86 ± 3 mg/dL
[2]; SAD 1.0 mg/kg, 48 Hours Post Dose
  Blood glucose: 88 ± 3 mg/dL
[2]; SAD 1.0 mg/kg, 72 Hours Post Dose
  Blood glucose: 86 ± 3 mg/dL
[2]; SAD 1.0 mg/kg, <2 hours predose, baseline
  Blood glucose: 93 ± 3 mg/dL
[2]; SAD 1.0 mg/kg, Day -1, baseline
  Blood glucose: 92 ± 3 mg/dL
[2]; SAD 1.0 mg/kg, Follow-up Visit
  Blood glucose: 93 ± 2 mg/dL
[2]; SAD 1.0 mg/kg, Screening, baseline
  Blood glucose: 92 ± 3 mg/dL
[2]; SAD 3.0 mg/kg, 24 Hours Post Dose
  Blood glucose: 93 ± 3 mg/dL
[2]; SAD 3.0 mg/kg, 48 Hours Post Dose
  Blood glucose: 89 ± 4 mg/dL
[2]; SAD 3.0 mg/kg, 72 Hours Post Dose
  Blood glucose: 88 ± 3 mg/dL
[2]; SAD 3.0 mg/kg, <2 hours predose, baseline
  Blood glucose: 92 ± 4 mg/dL
[2]; SAD 3.0 mg/kg, Day -1, baseline
  Blood glucose: 89 ± 3 mg/dL
[2]; SAD 3.0 mg/kg, Follow-up Visit
  Blood glucose: 91 ± 5 mg/dL
[2]; SAD 3.0 mg/kg, Screening, baseline
  Blood glucose: 96 ± 5 mg/dL
[2]; SAD 8.0 mg/kg, 24 Hours Post Dose
  Blood glucose: 91 ± 4 mg/dL
[2]; SAD 8.0 mg/kg, 48 Hours Post Dose
  Blood glucose: 87 ± 3 mg/dL
[2]; SAD 8.0 mg/kg, 72 Hours Post Dose
  Blood glucose: 89 ± 4 mg/dL
[2]; SAD 8.0 mg/kg, <2 hours predose, baseline
  Blood glucose: 86 ± 3 mg/dL
[2]; SAD 8.0 mg/kg, Day -1, baseline
  Blood glucose: 90 ± 5 mg/dL
[2]; SAD 8.0 mg/kg, Follow-up Visit
  Blood glucose: 94 ± 4 mg/dL
[2]; SAD 8.0 mg/kg, Screening, baseline
  Blood glucose: 89 ± 4 mg/dL
[2]; SAD 20.0 mg/kg, 24 Hours Post Dose
  Blood glucose: 91 ± 2 mg/dL
[2]; SAD 20.0 mg/kg, 48 Hours Post Dose
  Blood glucose: 86 ± 2 mg/dL
[2]; SAD 20.0 mg/kg, 72 Hours Post Dose
  Blood glucose: 88 ± 2 mg/dL
[2]; SAD 20.0 mg/kg, <2 hours predose, baseline
  Blood glucose: 97 ± 4 mg/dL
[2]; SAD 20.0 mg/kg, Day -1, baseline
  Blood glucose: 94 ± 3 mg/dL
[2]; SAD 20.0 mg/kg, Follow-up Visit
  Blood glucose: 89 ± 3 mg/dL
[2]; SAD 20.0 mg/kg, Screening, baseline
  Blood glucose: 93 ± 3 mg/dL
[3]; [5]
  Osteocalcin: 27.4 ± 9.3 ng/mL
[3]; [6]
  Osteocalcin: 33.2 ± 11.5 ng/mL
[3]; [7]
  Osteocalcin: 21.0 ± 7.8 ng/mL
[3]; [8]
  Osteocalcin: 30.3 ± 9.7 ng/mL
[3]; MAD 1.0 mg/kg, Day 15 recovery
  Osteocalcin: 28.8 ± 9.3 ng/mL
[3]; MAD 1.0 mg/kg, Day 17 recovery
  Osteocalcin: 25.9 ± 8.0 ng/mL
[3]; [9]
  Osteocalcin: 13.6 ± 11.5 ng/mL
[3]; [10]
  Osteocalcin: 13.7 ± 11.6 ng/mL
[3]; [11]
  Osteocalcin: 13.0 ± 11.0 ng/mL
[3]; [12]
  Osteocalcin: 17.1 ± 13.3 ng/mL
[3]; MAD 3.0 mg/kg, Day 15 recovery
  Osteocalcin: 16.1 ± 12.5 ng/mL
[3]; MAD 3.0 mg/kg, Day 17 recovery
  Osteocalcin: 13.9 ± 9.5 ng/mL
[3]; [13]
  Osteocalcin: 20.4 ± 4.7 ng/mL
[3]; [14]
  Osteocalcin: 32.9 ± 8.6 ng/mL
[3]; [15]
  Osteocalcin: 18.7 ± 4.3 ng/mL
[3]; [16]
  Osteocalcin: 24.0 ± 6.4 ng/mL
[3]; MAD 9.0 mg/kg, Day 15 recovery
  Osteocalcin: 26.7 ± 5.2 ng/mL
[3]; MAD 9.0 mg/kg, Day 17 recovery
  Osteocalcin: 33.5 ± 7.2 ng/mL
[3]; [17]
  Osteocalcin: 20.2 ± 4.6 ng/mL
[3]; [18]
  Osteocalcin: 31.5 ± 6.7 ng/mL
[3]; [19]
  Osteocalcin: 17.0 ± 3.7 ng/mL
[3]; [20]
  Osteocalcin: 32.8 ± 7.6 ng/mL
[3]; [21]
  Osteocalcin: 27.8 ± 5.9 ng/mL
[3]; [22]
  Osteocalcin: 34.6 ± 6.1 ng/mL
[3]; any MAD dose group, through 20 mg/kg/day
  osteocalcin and CTX1 vs placebo: no significant changes
[4]; [5]
  CTX1: 0.22 ± 0.02 ng/mL
[4]; [6]
  CTX1: 0.50 ± 0.11 ng/mL
[4]; [7]
  CTX1: 0.22 ± 0.01 ng/mL
[4]; [8]
  CTX1: 0.58 ± 0.12 ng/mL
[4]; MAD 1.0 mg/kg, Day 15 recovery
  CTX1: 0.68 ± 0.16 ng/mL
[4]; MAD 1.0 mg/kg, Day 17 recovery
  CTX1: 0.55 ± 0.09 ng/mL
[4]; [9]
  CTX1: 0.18 ± 0.00 ng/mL
[4]; [10]
  CTX1: 0.31 ± 0.05 ng/mL
[4]; [11]
  CTX1: 0.18 ± 0.00 ng/mL
[4]; [12]
  CTX1: 0.48 ± 0.13 ng/mL
[4]; MAD 3.0 mg/kg, Day 15 recovery
  CTX1: 0.48 ± 0.10 ng/mL
[4]; MAD 3.0 mg/kg, Day 17 recovery
  CTX1: 0.46 ± 0.12 ng/mL
[4]; [13]
  CTX1: 0.19 ± 0.006 ng/mL
[4]; [14]
  CTX1: 0.59 ± 0.11 ng/mL
[4]; [15]
  CTX1: 0.23 ± 0.03 ng/mL
[4]; [16]
  CTX1: 0.73 ± 0.14 ng/mL
[4]; MAD 9.0 mg/kg, Day 15 recovery
  CTX1: 0.77 ± 0.13 ng/mL
[4]; MAD 9.0 mg/kg, Day 17 recovery
  CTX1: 0.60 ± 0.10 ng/mL
[4]; [17]
  CTX1: 0.22 ± 0.02 ng/mL
[4]; [18]
  CTX1: 0.70 ± 0.14 ng/mL
[4]; [19]
  CTX1: 0.29 ± 0.06 ng/mL
[4]; [20]
  CTX1: 0.88 ± 0.12 ng/mL
[4]; [21]
  CTX1: 0.92 ± 0.14 ng/mL
[4]; [22]
  CTX1: 0.76 ± 0.10 ng/mL
